Results published in patent publication US20120165384A1, “INHIBITION OF HISTONE ACETYLTRANSFERASES BY CTK7A AND METHODS THEREOF” (JAWAHARLAL NEHRU CENTRE FOR ADVANCED SCIENTIFIC RESEARCH, priority 2009, published 2012).

Experiments:
p300 = p300 (Homo sapiens, UniProt Q09472); experiment: HAT assay with recombinant p300; format: biochemical; parameters: hexahistidine; made in house; host or cells: baculovirus-infected Sf21 cells
Experimental: (§1) Recombinant baculovirus expressing full-length FLAG-tagged CARM1,CBP and PCAF were purified by immunoaffinity chromatography using M2-agarose beads followed by elution with FLAG peptide. Baculovirus-expressed full-length hexahistidine-tagged p300, and G9a were purified using Ni-NTA affinity chromatography as described previously^30.
(§2) HAT gel fluorography/autoradiography assays were performed as previously reported^30. Kinetic analysis of p300 HAT inhibition was performed as reported earlier^31 in the presence of (0, 30 and 50 μM) CTK7A. The obtained values were plotted as a lineweaver burk plot using Graphpad Prism software. For p300 Autoacetylation assay, reactions of p300 full length (80 ng) were carried out in HAT assay buffer at 30° C. for 10 minutes with or without the protein (NPM1) followed by addition of 1 μl of 4.7 Ci/mmol [^3H] acetyl CoA (NEN-PerkinElmer) and were further incubated for another 10 min in a 30 μl reaction. GAPDH was used as positive control. The radio-labeled acetylated p300 were processed by fluorography followed by autoradiography.

CBP = target: T1, CBP (Homo sapiens, UniProt Q92793); experiment: HAT assay with recombinant CBP; format: biochemical
T1 construct: Recombinant baculovirus expressing full-length FLAG-tagged CARM1,CBP and PCAF; FLAG; made in house; host or cells: baculovirus-infected Sf21 cells
Experimental: as §1, §2

G9a = target: T2, G9a (Homo sapiens, UniProt Q96KQ7); experiment: Histone methyltransferase (HMTase) assay, G9a; format: biochemical; conditions: even at 100 μM
T2 construct: hexahistidine; made in house; host or cells: baculovirus-infected Sf21 cells
T2 sequence (Q96KQ7 1-1210): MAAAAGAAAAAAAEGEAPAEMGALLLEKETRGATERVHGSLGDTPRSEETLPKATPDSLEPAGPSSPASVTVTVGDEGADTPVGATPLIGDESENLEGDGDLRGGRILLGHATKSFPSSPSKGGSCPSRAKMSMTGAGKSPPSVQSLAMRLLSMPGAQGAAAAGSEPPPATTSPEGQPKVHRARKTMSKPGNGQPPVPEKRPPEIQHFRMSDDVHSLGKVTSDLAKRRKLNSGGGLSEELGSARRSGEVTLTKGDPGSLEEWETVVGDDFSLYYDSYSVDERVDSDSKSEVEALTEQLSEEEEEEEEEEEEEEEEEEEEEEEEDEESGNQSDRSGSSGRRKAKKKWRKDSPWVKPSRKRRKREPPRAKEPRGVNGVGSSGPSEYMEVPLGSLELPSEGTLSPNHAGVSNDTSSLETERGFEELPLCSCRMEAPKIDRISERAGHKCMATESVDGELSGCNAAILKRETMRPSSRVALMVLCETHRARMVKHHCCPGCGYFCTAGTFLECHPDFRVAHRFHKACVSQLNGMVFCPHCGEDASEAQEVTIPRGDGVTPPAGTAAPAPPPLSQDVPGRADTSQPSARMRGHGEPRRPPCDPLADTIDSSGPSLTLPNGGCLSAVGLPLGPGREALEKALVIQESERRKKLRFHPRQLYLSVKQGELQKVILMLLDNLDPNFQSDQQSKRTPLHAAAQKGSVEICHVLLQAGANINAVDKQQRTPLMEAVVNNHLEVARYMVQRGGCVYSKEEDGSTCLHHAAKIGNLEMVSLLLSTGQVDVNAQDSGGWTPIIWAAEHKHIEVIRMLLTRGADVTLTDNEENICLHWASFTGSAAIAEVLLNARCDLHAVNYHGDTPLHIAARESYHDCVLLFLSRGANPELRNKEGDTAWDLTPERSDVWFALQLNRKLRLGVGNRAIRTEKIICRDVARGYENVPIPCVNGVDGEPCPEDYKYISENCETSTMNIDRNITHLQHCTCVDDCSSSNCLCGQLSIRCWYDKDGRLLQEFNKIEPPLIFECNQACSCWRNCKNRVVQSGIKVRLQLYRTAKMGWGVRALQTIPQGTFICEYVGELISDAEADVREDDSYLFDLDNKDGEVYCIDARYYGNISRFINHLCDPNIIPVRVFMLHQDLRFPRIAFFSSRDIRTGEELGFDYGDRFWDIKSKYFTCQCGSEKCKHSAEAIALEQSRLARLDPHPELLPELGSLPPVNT
Experimental: as §1
(§3) The deacetylation assay was performed as per standard protocol^31. For SirT2 deacetylase assay, 50 ng of bacterially expressed, recombinant enzyme was added in the presence or absence of cofactor NAD^+. HMTase was performed as reported earlier^31.

Solubility test in water = format: physicochemical
Experimental: To a solution of curcumin in methanol (10 mg, 0.027 Mmol) […]. After incubation for 24 h, the solvent was evaporated in vacuum. The residue […] was purified with repeated recrystallization and filtration method using TLC (CHCl3/MeOH=4:1; Rf=0.5). This gave CTK7 as a dark orange powder (7.18 mg, 55%) which was analyzed by H^1 NMR, Melting point test, Solubility test and ESI-MS.
To a solution of CTK7 in methanol (50 mg, 0.1031 mmol), (10 ml) of Sodium ethoxide was added ([…], 0.1175 mmol) and the reaction mixture was stirred at room temperature for 90 minutes. The solvent was evaporated in vacuum and the residue was washed with hexane, diethyl ether and ethyl acetate. Product was confirmed through H^1 NMR, Solubility test, melting point.

CARM1 = target: T3, CARM1 (Homo sapiens, UniProt Q86X55); experiment: Histone methyltransferase (HMTase) assay, CARM1; format: biochemical; conditions: even at 100 μM
T3 construct: Recombinant baculovirus expressing full-length FLAG-tagged CARM1,CBP and PCAF; FLAG; made in house; host or cells: baculovirus-infected Sf21 cells
T3 sequence (Q86X55 1-608): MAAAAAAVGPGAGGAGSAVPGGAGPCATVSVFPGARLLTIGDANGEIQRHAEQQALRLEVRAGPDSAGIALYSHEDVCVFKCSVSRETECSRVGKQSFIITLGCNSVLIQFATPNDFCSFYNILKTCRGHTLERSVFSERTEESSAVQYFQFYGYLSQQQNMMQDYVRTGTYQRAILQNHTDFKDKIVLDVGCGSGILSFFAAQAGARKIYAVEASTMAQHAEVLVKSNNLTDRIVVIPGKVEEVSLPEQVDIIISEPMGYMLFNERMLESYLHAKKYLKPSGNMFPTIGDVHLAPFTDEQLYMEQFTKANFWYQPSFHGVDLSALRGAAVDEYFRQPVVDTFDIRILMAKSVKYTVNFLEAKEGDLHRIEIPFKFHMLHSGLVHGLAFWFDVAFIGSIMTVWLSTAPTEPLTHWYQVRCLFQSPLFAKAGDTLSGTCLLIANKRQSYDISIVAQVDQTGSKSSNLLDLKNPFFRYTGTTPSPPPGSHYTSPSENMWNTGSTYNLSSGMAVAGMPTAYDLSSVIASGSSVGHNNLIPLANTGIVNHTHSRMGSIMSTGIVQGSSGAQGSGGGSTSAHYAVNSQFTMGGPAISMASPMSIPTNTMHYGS
Experimental: as §1, §3

Chain of p300 (Q09472 whole entry, species assumed): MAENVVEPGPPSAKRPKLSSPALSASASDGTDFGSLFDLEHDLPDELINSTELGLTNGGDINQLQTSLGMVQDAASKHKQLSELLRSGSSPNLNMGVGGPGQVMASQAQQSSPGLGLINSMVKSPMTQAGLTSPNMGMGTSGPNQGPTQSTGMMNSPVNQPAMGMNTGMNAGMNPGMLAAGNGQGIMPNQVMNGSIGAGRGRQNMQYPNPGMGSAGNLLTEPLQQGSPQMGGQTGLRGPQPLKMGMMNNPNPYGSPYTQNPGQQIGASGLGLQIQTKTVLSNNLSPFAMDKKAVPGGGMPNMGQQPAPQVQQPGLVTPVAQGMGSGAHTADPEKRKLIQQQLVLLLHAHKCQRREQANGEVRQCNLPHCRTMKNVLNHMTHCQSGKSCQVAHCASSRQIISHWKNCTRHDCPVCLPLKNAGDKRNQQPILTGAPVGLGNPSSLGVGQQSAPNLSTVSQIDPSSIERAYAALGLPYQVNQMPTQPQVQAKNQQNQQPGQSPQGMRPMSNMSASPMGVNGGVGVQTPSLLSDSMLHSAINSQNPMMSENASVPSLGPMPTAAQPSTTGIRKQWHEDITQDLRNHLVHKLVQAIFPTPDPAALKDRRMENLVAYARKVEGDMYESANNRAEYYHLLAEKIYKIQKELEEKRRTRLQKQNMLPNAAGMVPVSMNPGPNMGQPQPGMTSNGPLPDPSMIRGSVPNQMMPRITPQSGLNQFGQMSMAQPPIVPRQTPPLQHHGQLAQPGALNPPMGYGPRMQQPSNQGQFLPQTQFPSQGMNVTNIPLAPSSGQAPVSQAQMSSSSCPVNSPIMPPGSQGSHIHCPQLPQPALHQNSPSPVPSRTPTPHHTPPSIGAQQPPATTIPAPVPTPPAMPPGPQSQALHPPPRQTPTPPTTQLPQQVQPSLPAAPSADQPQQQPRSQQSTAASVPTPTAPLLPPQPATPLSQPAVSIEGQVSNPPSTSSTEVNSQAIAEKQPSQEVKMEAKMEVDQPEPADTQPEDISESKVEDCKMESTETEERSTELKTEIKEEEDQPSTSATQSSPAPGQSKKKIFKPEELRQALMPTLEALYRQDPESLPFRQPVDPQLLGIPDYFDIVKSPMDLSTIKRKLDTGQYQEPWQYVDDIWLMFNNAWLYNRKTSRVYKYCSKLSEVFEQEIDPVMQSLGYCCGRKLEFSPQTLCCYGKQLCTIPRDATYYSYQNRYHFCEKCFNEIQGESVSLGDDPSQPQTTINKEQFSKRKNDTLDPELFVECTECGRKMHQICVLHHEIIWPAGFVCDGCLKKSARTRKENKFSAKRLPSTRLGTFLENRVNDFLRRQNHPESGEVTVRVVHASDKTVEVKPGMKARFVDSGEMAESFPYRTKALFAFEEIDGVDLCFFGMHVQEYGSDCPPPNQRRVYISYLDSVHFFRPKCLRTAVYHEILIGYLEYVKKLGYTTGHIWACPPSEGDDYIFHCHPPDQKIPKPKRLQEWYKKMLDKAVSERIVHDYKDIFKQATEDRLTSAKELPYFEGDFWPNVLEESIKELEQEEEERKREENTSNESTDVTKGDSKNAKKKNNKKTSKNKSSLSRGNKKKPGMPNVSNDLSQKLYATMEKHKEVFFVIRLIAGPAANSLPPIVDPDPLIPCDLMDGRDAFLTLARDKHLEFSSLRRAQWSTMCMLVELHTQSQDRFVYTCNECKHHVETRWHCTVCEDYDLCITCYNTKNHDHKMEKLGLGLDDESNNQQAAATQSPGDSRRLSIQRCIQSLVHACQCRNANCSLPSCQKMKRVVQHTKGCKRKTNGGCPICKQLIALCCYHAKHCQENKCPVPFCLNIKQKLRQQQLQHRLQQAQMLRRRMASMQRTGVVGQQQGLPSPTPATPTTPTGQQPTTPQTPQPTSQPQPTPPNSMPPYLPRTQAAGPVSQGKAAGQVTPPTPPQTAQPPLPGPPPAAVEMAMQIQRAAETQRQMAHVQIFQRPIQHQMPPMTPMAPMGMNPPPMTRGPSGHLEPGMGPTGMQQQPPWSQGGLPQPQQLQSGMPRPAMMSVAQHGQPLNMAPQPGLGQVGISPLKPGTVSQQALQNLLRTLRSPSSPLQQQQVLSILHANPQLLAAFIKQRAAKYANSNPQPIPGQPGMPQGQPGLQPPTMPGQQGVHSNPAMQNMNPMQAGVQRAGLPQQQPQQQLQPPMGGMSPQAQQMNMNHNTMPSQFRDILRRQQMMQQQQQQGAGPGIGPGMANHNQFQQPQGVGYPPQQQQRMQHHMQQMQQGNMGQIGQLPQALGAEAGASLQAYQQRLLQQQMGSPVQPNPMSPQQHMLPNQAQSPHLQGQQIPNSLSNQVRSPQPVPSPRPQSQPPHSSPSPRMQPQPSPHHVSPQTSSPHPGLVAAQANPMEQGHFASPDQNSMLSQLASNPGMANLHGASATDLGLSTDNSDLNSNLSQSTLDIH
T1 sequence (Q92793 whole entry): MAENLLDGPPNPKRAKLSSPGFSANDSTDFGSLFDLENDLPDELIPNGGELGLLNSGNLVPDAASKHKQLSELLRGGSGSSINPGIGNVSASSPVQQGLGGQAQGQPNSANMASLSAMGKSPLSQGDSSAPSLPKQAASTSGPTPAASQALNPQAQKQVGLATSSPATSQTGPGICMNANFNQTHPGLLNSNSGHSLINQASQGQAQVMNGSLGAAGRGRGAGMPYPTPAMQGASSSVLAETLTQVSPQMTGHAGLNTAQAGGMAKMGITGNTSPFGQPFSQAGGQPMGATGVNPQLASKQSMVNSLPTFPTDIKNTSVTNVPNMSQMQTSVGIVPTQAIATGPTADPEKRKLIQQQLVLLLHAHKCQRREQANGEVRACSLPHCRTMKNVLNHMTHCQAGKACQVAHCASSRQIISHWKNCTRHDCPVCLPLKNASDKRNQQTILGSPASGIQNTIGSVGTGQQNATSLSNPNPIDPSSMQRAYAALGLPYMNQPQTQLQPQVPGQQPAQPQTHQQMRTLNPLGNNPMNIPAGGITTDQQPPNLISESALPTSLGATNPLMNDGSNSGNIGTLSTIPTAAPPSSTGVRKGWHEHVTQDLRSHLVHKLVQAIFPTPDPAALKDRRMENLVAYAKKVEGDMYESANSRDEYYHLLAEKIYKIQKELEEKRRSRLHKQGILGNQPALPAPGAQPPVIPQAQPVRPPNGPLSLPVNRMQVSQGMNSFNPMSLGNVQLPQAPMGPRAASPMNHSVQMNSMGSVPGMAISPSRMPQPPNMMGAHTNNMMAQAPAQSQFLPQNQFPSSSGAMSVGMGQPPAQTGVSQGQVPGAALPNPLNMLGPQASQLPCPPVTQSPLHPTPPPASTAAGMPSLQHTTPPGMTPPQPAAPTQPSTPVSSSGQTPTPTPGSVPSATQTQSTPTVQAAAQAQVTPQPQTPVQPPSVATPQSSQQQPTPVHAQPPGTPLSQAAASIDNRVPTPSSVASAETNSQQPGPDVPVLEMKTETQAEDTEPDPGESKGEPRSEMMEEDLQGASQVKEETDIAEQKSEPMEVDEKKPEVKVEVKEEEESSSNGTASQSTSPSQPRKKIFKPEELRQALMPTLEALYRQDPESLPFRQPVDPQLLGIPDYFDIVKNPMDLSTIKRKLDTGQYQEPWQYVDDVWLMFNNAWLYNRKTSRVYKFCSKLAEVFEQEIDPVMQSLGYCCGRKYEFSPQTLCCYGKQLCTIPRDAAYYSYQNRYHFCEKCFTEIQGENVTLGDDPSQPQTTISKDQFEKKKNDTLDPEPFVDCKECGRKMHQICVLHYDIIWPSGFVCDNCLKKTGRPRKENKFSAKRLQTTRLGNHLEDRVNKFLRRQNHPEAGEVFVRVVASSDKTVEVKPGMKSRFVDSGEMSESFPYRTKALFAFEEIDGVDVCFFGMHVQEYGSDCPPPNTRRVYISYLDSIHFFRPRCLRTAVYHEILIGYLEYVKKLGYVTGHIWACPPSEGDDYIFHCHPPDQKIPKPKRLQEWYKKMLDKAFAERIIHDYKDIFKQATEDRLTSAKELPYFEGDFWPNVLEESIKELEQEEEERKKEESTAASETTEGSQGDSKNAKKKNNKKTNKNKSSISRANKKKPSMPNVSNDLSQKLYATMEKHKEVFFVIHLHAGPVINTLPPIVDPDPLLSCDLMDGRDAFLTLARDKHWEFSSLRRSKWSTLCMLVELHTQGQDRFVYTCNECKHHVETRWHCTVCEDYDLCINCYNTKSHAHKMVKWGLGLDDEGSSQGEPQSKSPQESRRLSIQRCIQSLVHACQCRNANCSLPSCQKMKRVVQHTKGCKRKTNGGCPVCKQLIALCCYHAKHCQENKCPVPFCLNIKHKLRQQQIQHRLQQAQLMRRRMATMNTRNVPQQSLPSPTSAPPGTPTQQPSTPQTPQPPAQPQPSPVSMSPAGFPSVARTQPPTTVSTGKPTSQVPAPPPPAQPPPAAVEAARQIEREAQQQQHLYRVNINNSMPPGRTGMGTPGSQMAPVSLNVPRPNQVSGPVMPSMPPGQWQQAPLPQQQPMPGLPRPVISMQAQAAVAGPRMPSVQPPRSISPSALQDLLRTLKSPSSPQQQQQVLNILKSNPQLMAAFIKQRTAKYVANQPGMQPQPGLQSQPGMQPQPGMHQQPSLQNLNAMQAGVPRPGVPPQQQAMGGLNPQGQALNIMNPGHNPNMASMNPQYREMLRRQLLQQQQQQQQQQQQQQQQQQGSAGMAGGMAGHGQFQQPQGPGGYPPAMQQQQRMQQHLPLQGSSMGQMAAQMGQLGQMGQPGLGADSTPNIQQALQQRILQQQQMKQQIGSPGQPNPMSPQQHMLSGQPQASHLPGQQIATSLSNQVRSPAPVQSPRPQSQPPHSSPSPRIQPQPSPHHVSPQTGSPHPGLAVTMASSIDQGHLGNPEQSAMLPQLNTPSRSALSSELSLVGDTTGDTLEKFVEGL

## COc1cc([O-])cc(C=CC2=NN(c3ccc(C(=O)[O-])cc3)C(C=Cc3cc([O-])cc(OC)c3)C2)c1.[Na+].[Na+].[Na+] (stereo not drawn) [CTK7A, Sodium 4-(3,5-bis(3-methoxy-5-oxidostyryl)-4,5dihydro-1H-pyrazole-1-yl)benzoate]
p300
  inhibition of p300 HAT activity: inhibit
p300; both substrates, acetyl-coA and core histone, 0, 30 and 50 μM
  type of inhibition pattern for p300: non-competitive
CBP
  inhibition of CBP HAT activity: inhibit
G9a
  effect on G9a activity: unaffected
Solubility test in water
  solubility in water: Soluble
CARM1
  effect on CARM1 activity: unaffected
